The target of data set [1] is T1, NRP-1 (Rattus norvegicus, UniProt Q9QWJ9).
T1 construct: purchased R&D Systems
The data set can be described thus: VEGF165 displacement assay (inhibition of VEGF165 to NRP-1 binding). The note with it: biotinylated VEGF165 1 nM; for inhibition at 0.1 µM: compound 0.1 μM; for inhibition at 0.3 µM: compound 0.3 μM; for inhibition at 1 µM: compound 1 μM; for inhibition at 0.03 µM: compound 0.03 μM. The method, then: Antiangiogenic properties were evaluated in vitro by measuring the inhibition of VEGF165 to NRP-1 binding. This test makes it possible to evaluate the % inhibition by the evaluated compound at a particular concentration.
The evaluation of the inhibitory effect of peptidomimetics were performed using an enzymatic method denoting the spectrophotometric displacement of the VEGF165 ligand from a bond with the specific receptor Neuropilin-1 by the evaluated compound. The studies were performed using polystyrene 96-well plates (Maxisorb, Nunc.).
To evaluate the biological inhibitory activity of selected molecules, the surfaces of flat bottom polystyrene wells of 96-wells plates (Maxisorb, Nunc,) was treated with 100 ul of 2 ug/ml anti-Fc IgG (Sigma-Aldrich, Saint Quentin Fallavier, France) in phosphate buffer saline (PBS, Sigma) overnight at 4° C. After washing and saturation of non-specific interactions with bovine serum albumin (BSA, Sigma), purified recombinant rat NRP1-Fc (20 ng/well, R&D Systems, Abingdon, UK) in 50 μl PBS-BSA 0.1%-tween-80 0.005% (PBT), […] VEGF165 (final concentration 1 nM, R&D Systems) diluted in PBT containing 2 μg/ml of heparin (Sigma) were successively added to a final volume of 150 μl. After an overnight incubation at 4° C., the wells were washed with PBT and treated with streptavidin-HRP polymer (Sigma) followed by washing and addition of ABTS substrate (Sigma). The DO measures were performed at 415 nm in reference to 470 nm after 15 minutes-2 h of reaction. […] In the control wells, the tested compound was absent but the respective concentration of DMSO was maintained. The heptapeptide A7R (ATWLPPR) was routinely used as a positive control for each plate.

Data set [2] in a line: In vitro peptidomimetic stability in human plasma (LC/MS). The settings on record: 37° C.; for half-life at 0.35 μmol/mL: human plasma from healthy donors, TFA salt, read-out: half-life time; for main enzymatic cleavage / degradation products: human plasma. The data set is classed as in vitro ADME. The protocol:
The stability of two peptidomimetics: Lys(hArg)-Dap-Pro-Arg and Lys(hArg-Pro-Dab-Arg were tested in plasma samples obtained from healthy donors. Peptidomimetics stock solutions were prepared by dissolving the TFA salt of proper peptidomimetic in water to obtain a final peptidomimetic concentration of 0.7 μmol/mL. In a Eppendorf tube, samples of 100 μL of human plasma were temperature-equilibrated at 37° C. for 15 minutes before adding 100 μL of peptidomimetic stock solution. Three tubes allowed the analysis for each time point. The initial time was recorded and at known time intervals (every 10 minutes from 0 sec to 3 h), 400 μL of solution of TCA in 99.8% ethanol (CTCA=0.2%) was added to the reaction solution for precipitation of the serum proteins. The cloudy reaction sample was shaken and then spun at 2000 g to pellet the precipitated serum proteins. The reaction supernatant was then analyzed by LC/MS analysis (using a RP-HPLC-ESI-MS system).

Non-standard residues stand in square brackets, D forms with d. Residues, ends and D or L forms follow the SMILES beside them. No end group written: not given here. ξ: configuration not given here. hArg = N=C(N)NCCCC[C@H](N)C(=O)O; Dab = NCC[C@H](N)C(=O)O; Dap = NC[C@H](N)C(=O)O; ξP = O=C(O)C1CCCN1

T1 sequence (Q9QWJ9 with tags, fused parts or gaps limits assumed): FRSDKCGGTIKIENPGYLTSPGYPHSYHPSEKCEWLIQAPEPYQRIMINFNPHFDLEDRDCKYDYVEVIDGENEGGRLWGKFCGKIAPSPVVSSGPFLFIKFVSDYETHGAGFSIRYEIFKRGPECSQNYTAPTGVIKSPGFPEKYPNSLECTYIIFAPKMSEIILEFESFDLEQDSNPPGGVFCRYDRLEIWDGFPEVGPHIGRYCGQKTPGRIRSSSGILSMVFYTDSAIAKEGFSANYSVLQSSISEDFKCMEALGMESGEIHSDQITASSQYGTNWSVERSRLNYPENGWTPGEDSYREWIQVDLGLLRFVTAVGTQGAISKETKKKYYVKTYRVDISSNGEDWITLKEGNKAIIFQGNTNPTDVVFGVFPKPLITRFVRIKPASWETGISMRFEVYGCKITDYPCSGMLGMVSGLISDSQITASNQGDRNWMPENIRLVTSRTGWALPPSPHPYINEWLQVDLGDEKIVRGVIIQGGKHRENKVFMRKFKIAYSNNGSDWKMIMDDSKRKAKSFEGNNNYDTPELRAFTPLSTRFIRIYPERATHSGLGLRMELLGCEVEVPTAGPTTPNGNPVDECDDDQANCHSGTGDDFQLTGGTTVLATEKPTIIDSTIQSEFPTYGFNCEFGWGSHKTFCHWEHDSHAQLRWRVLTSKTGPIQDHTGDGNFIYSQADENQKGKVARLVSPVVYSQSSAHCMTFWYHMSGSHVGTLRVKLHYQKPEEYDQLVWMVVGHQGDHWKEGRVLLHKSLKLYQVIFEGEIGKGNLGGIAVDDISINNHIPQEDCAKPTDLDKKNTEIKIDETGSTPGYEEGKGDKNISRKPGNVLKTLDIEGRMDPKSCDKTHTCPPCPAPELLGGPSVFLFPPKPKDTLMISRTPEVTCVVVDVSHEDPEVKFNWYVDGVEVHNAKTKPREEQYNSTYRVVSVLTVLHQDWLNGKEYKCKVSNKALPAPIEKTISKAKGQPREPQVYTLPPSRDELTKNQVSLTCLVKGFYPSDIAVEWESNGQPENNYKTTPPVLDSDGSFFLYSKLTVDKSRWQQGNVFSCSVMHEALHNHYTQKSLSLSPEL

Consider ATWLPPR [A7R, reference compound], for which the “% inhibition of VEGF165 to NRP-1 binding” value in data set [1] (compound 3 μM) was 61.2%; in data set [1] (compound 10 μM), 76.9%; in data set [1] (compound 30 μM) it was 85.5%.
As to `N=C(N)NCCCC[C@H](N)C(=O)NCCCC[C@H](N)C(=O)N[C@@H](CCN)C(=O)N1CCC[C@H]1C(=O)N[C@@H](CCCNC(=N)N)C(=O)O` [compound 4, Lys(hArg)-Dab-Pro-Arg] (H-K(hArg)[Dab]PR-OH), in data set [1], testing at 0.1 µM gave an inhibition of 21.6%, the inhibition at 0.3 µM came out at 47.8% and at 1 µM the inhibition was 82.4%. The molecule also registered an inhibition at 3 µM in data set [1] (compound 3 μM) of 91.4%. In data set [1] (compound 10 μM), this molecule registered an inhibition at 10 µM of 98.5%. In data set [1] (compound 30 μM), this molecule had an inhibition at 30 µM of 100%.
Take `N=C(N)NCCCC[C@H](N)C(=O)NCCCC[C@H](N)C(=O)N1CCCC1C(=O)N[C@@H](CCN)C(=O)N[C@@H](CCCNC(=N)N)C(=O)O` (stereo partly drawn) [compound 2, Lys(hArg)-Pro-Dab-Arg] (H-K(hArg)[ξP][Dab]R-OH): in data set [2], the half-life at 0.35 μmol/mL is 40 min; the “main enzymatic cleavage / degradation products” value was “to Lys(hArg)-Pro and Dab-Arg”. In data set [1], the inhibition at 0.03 µM worked out at 13.7%, the inhibition at 0.1 µM is 35.4%, the inhibition at 0.3 µM was found to be 62.2% and the inhibition at 1 µM was 82.6%. This molecule also displayed an inhibition at 3 µM in data set [1] (compound 3 μM) of 93.6%. In data set [1] (compound 10 μM), this molecule had an inhibition at 10 µM of 98.3%. Also, in data set [1] (compound 30 μM), 30 µM produced 100% inhibition.
`N=C(N)NCCCC[C@H](N)C(=O)NCCCC[C@H](N)C(=O)N[C@@H](CN)C(=O)N1CCC[C@H]1C(=O)N[C@@H](CCCNC(=N)N)C(=O)O` [compound 3, Lys(hArg)-Dap-Pro-Arg] (H-K(hArg)[Dap]PR-OH): in data set [2], the half-life at 0.35 μmol/mL was approximately 140 min; the “main enzymatic cleavage / degradation products” value is “between the first and second residue”. For the same molecule, in data set [1], the inhibition at 0.03 µM stood at 11.6%, at 0.1 µM the inhibition was 33%, 0.3 µM produced 59.4% inhibition and 1 µM produced 82% inhibition. Moreover, in data set [1] (compound 3 μM), testing at 3 µM gave an inhibition of 93.4%. Besides, the inhibition at 10 µM in data set [1] (compound 10 μM) turned out to be 96.8%. The inhibition at 30 µM in data set [1] (compound 30 μM) is 99.7%.

The inhibition is the relative decrease from the control value, in per cent. Lower therefore signals little suppression. What is called half-life is the time needed for the level to fall by half in the phase considered.

These data come from US10301352B2, “Peptidomimetics with antiangiogenic activity” (UNIWERSYTET WARSZAWSKI, priority 2013, dated 2019).
